Results published in US7053177B1, “Random peptides that bind to gastro-intestinal tract (GIT) transport receptors and related methods” (Cytogen Corporation, priority 1997, dated 2006).
Ends that are not written are not given here. Peptide text beside a SMILES is read from it. * marks the point of attachment. Dansyl = CN(C)c1cccc2c(S(=O)(=O)*)cccc12; K(dns) = dansyl-lysine

How the values were obtained:
[1] = test system: P100 membrane fraction of Caco-2 cells; test: Dansylated peptide ELISA: relative binding of PAX2 and HAX42 peptides to P100 fractions (ratio to ZElan021); settings: ratio to ZElan021 = 1.00
Protocol: The peptides and proteins were analyzed by a dansylated peptide ELISA method in which 96 well plates were coated overnight at 4° C. with 100 μl/well coating protein (normally 100 μg/ml P100 membrane fraction) in 0.05M carbonate buffer pH9.6. Nonspecific binding was blocked using 200 μl/well, 2% Marvel/PBS for 2 hours at 37° C. prior to incubation with dansylated peptides. The plates were washed three times with PBS/0.05% Tween 20 and after each subsequent incubation step. […] A buffer blank control was included to ensure that background binding to plastic was not due to the antibodies used in the assay system. […] Plates were developed using 75 μl/well Bionostics TMB substrate and incubated for approximately 10 minutes. The developing reaction was stopped using Bionostics Red Stop solution (25 μl/well), and the optical density of the plates was read at 650 nm. […]

[2] = target: bovine serum albumin (bovine) (UniProt P02769); test: phage ELISA on coated BSA
Chain of bovine serum albumin (bovine) (P02769 25-607 limits assumed): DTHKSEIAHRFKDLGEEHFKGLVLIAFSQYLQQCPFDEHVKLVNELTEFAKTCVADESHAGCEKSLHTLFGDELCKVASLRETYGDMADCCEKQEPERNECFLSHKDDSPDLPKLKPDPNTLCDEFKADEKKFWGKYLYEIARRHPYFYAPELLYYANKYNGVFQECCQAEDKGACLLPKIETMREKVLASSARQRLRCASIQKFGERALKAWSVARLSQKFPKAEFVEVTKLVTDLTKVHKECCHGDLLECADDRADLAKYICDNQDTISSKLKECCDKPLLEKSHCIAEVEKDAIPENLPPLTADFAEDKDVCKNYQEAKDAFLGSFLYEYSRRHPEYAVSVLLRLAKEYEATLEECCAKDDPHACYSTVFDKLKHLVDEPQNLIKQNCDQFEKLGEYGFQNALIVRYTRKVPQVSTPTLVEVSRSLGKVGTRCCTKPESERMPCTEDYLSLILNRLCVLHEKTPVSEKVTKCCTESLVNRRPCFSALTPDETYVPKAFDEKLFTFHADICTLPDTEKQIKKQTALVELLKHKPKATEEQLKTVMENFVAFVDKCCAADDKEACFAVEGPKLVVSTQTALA

[3] = PAX2 peptides, 50 μg/ml, first column
[4] = PAX2 peptides, 50 μg/ml, second column
[5] = HAX42 peptides, 50 μg/ml, first column
[6] = HAX42 peptides, 50 μg/ml, second column

Molecule: CC(C)C[C@H](NC(=O)[C@H](CCCNC(=N)N)NC(=O)[C@H](CCCNC(=N)N)NC(=O)[C@H](CC(N)=O)NC(=O)[C@H](Cc1c[nH]cn1)NC(=O)[C@H](CO)NC(=O)[C@H](CO)NC(=O)[C@@H](N)CCCCNS(=O)(=O)c1cccc2c(N(C)C)cccc12)C(=O)N[C@@H](CCCNC(=N)N)C(=O)N[C@H](C(=O)N[C@@H](C)C(N)=O)[C@@H](C)O [ZElan082] (H-K(Dansyl)SSHNRRLRTA-NH2)
- Binding value at 20 μg/ml ([1]; PAX2 peptides, first column): 0.00
- Binding value at 50 μg/ml [1, 3]: 0.92
- Binding value at 50 μg/ml [1, 4]: 0.40

Molecule: CC[C@H](C)[C@H](NC(=O)[C@H](C)NC(=O)[C@H](CO)NC(=O)[C@@H]1CCCN1C(=O)[C@H](CCCNC(=N)N)NC(=O)[C@H](CCCNC(=N)N)NC(=O)[C@H](CCCNC(=N)N)NC(=O)[C@H](CC(N)=O)NC(=O)[C@H](Cc1ccccc1)NC(=O)[C@@H](NC(=O)[C@H](CCCCN)NC(=O)[C@H](CCCNC(=N)N)NC(=O)CNC(=O)[C@@H](NC(=O)[C@H](CO)NC(=O)[C@H](CC(N)=O)NC(=O)CNC(=O)[C@H](CC(N)=O)NC(=O)CNC(=O)[C@H](CS)NC(=O)[C@H](CS)NC(=O)[C@H](CC(N)=O)NC(=O)[C@H](Cc1ccc(O)cc1)NC(=O)[C@H](CC(=O)O)NC(=O)CNC(=O)[C@@H](N)CCCCNS(=O)(=O)c1cccc2c(N(C)C)cccc12)[C@@H](C)O)C(C)C)C(=O)N1CCC[C@H]1C(=O)N[C@H](C(N)=O)[C@@H](C)O [ZElan061] (H-K(Dansyl)GDYNCCGNGNSTGRKVFNRRRPSAIPT-NH2)
- Binding value at 20 μg/ml ([1]; HAX42 peptides): 0.20
- Binding value at 50 μg/ml [1, 5]: 0.60
- Binding value at 50 μg/ml [1, 6]: 0.38

Molecule: H2N—K(dns)SDHALGTNLRSDNAKEPGDY ({K(dns)}-SDHALGTNLRSDNAKEPGDY; not fully specified (C-terminus); printed as H2N—K(dns)SDHALGTNLRSDNAKEPGDY) [ZElan087]
- Binding value at 25 μg/ml ([1]; HAX42 peptides, first column): 0.46
- Binding value at 25 μg/ml ([1]; HAX42 peptides, second column): 0.44

Molecule: CC(C)C[C@H](NC(=O)[C@H](CCCNC(=N)N)NC(=O)[C@H](CCCNC(=N)N)NC(=O)[C@H](C)NC(=O)[C@H](Cc1c[nH]cn1)NC(=O)[C@H](CO)NC(=O)[C@H](CO)NC(=O)[C@@H](N)CCCCNS(=O)(=O)c1cccc2c(N(C)C)cccc12)C(=O)N[C@@H](CCCNC(=N)N)C(=O)N[C@H](C(=O)N[C@@H](CCCNC(=N)N)C(N)=O)[C@@H](C)O [ZElan076] (H-K(Dansyl)SSHARRLRTR-NH2)
- Binding value at 20 μg/ml ([1]; PAX2 peptides, first column): 0.08
- Binding value at 50 μg/ml (Jackson Ab) ([1]; PAX2 peptides, 50 μg/ml, Jackson Ab): 0.60
- Binding value at 50 μg/ml (Southern Ab) ([1]; PAX2 peptides, 50 μg/ml, Southern Ab): 0.42
- Binding value at 50 μg/ml [1, 3]: 1.00
- Binding value at 50 μg/ml [1, 4]: 0.41

Molecule: CC(C)[C@H](NC(=O)[C@H](CCCCN)NC(=O)[C@H](CCCNC(=N)N)NC(=O)[C@@H](N)CCCCNS(=O)(=O)c1cccc2c(N(C)C)cccc12)C(=O)N[C@@H](Cc1ccccc1)C(=O)N[C@@H](CC(N)=O)C(=O)N[C@@H](CCCNC(=N)N)C(=O)N[C@@H](CCCNC(=N)N)C(=O)N[C@@H](CCCNC(=N)N)C(=O)N1CCC[C@H]1C(=O)N[C@@H](CO)C(N)=O [ZElan065] (H-K(Dansyl)RKVFNRRRPS-NH2)
- Binding value at 20 μg/ml ([1]; HAX42 peptides): 0.00
- Binding value at 50 μg/ml [1, 5]: 0.54
- Binding value at 50 μg/ml [1, 6]: 0.30

Molecule: H2N-K(dns)SDHALGTNLRSDNAKEPGDYNCCGNG-CONH2 ({K(dns)}-SDHALGTNLRSDNAKEPGDYNCCGNG-NH2; cysteine pairing not given here) [ZElan06O]
- Binding value at 20 μg/ml ([1]; HAX42 peptides): 0.44
- Binding value at 50 μg/ml [1, 5]: 0.56
- Binding value at 50 μg/ml [1, 6]: 0.43

Molecule: C[C@H](NC(=O)[C@H](CC(N)=O)NC(=O)[C@@H](NC(=O)[C@@H](N)CCCCNS(=O)(=O)c1cccc2c(N(C)C)cccc12)[C@@H](C)O)C(=O)N[C@@H](CCCCN)C(=O)N[C@@H](Cc1c[nH]cn1)C(=O)N[C@@H](CO)C(=O)N[C@@H](CO)C(=O)N[C@@H](Cc1c[nH]cn1)C(=O)N[C@@H](CC(N)=O)C(N)=O [ZElan055] (H-K(Dansyl)TNAKHSSHN-NH2)
- Binding value at 20 μg/ml ([1]; PAX2 peptides, first column): 0.99
- Binding value at 20 μg/ml ([1]; PAX2 peptides, second column): 0.73
- Binding value at 50 μg/ml [1, 3]: 1.10
- Binding value at 50 μg/ml [1, 4]: 0.59

Molecule: H2N—K(dns)PGDYNCCGNGNSTG [ZElan091]
- Binding value at 25 μg/ml ([1]; HAX42 peptides, first column): 2.02
- Binding value at 25 μg/ml ([1]; HAX42 peptides, second column): 1.37
- Binding value at 25 μg/ml ([1]; HAX42 peptides, third column): 1.20

Molecule: H2N—K(dns)PGDYNCCGNG ({K(dns)}-PGDYNCCGNG-NH2; cysteine pairing not given here) [ZElan092]
- Binding value at 25 μg/ml ([1]; HAX42 peptides, first column): 1.41
- Binding value at 25 μg/ml ([1]; HAX42 peptides, second column): 1.90
- Binding value at 25 μg/ml ([1]; HAX42 peptides, third column): 0.91

B1: phage SNiAX2 (peptide)
peptide: SDSDGDHYGLRGGVRCSLRDRGCGLALSTVHAGPPSFYPKLSSP
modifications: cysteine pairing not given here; also: displayed as N-terminal pIII fusion on M13 phage
- OD [2]: 0.065 OD 650 nm

Molecule: SHSGGMNRAYGDVFRELRDRWNATSHHTRPTPQLPRGPN [phage SNi28]
- OD [2]: 0.113 OD 650 nm

Molecule: SPKLSSVGVMTKVTELPTEGPNAISIPISATLGPRNPLR (also: displayed as N-terminal pIII fusion on M13 phage) [phage SNiAX8]
- OD [2]: 0.068 OD 650 nm

Molecule: RVGQCTDSDVRRPWARSCAHQGCGAGTRNSHGCITRPLRQASAH [phage SNi10]
- OD [2]: 0.051 OD 650 nm

Molecule: SPCGGSWGRFMQGGLFGGRTDGCGAHRNRTSASLEPPSSDY [phage SNi34]
- OD [2]: 0.115 OD 650 nm

Molecule: SKSGEGGDSSRGETGWARVRSHAMTAGRFRWYNQLPSDR [phage DAB10]
- OD [2]: 0.153 OD 650 nm

Molecule: RWCGAELCNSVTKKFRPGWRDHANPSTHHRTPPPSQSSP [phage DAB3]
- OD [2]: 0.072 OD 650 nm

Molecule: RWCGADDPCGASRWRGGNSLFGCGLRCSAAQSTPSGRIHSTSTS [phage DAB7]
- OD [2]: 0.09 OD 650 nm

Molecule: RGAADQRRGWSENLGLPRVGWDAIAHNSYTFTSRRPRPP [phage SNi38]
- OD [2]: 0.076 OD 650 nm

Molecule: RSGAYESPDGRGGRSYVGGGGGCGNIGRKHNLWGLRTASPACWD [phage S15]
- OD [2]: 0.053 OD 650 nm

Molecule: SGGEVSSWGRVNDLCARVSWTGCGTARSARTDNKGFLPKHSSLR [phage SNi45]
- OD [2]: 0.056 OD 650 nm

B2: phage SNiAX6 (peptide)
peptide: RTTTAKGCLLGSFGVLSGCSFTPTSPPPHLGYPPHSVN
modifications: cysteine pairing not given here; also: displayed as N-terminal pIII fusion on M13 phage
- OD [2]: 0.056 OD 650 nm
